Literature values, collected in paper PMC3294027 (Methods (San Diego, Calif.), 2011).
Read-outs that look alike come from different tables or passages of the source.

How the values were obtained:
antibody 2D12.5 [1] = conditions: 0.1 M sodium phosphate, pH 7.0, SD in parentheses
antibody 2D12.5 [2] = conditions: for Half-life / koff: TBS pH 7.4, Avg(SD); for Calc kon: calculated as koff/KD

Substance | KA (antibody 2D12.5 [1]; 30 °C) | Kd (antibody 2D12.5 [1]; 30 °C) | ΔG (antibody 2D12.5 [1]; 30 °C) | ΔH (antibody 2D12.5 [1]; 30 °C) | ΔS (antibody 2D12.5 [1]; 30 °C) | KA (antibody 2D12.5 [1]; 37 °C) | Kd (antibody 2D12.5 [1]; 37 °C) | ΔG (antibody 2D12.5 [1]; 37 °C) | ΔH (antibody 2D12.5 [1]; 37 °C) | ΔS (antibody 2D12.5 [1]; 37 °C) | Half-life (antibody 2D12.5 [2]; 30°C) | koff (antibody 2D12.5 [2]; 30°C) | Calc kon (antibody 2D12.5 [2]; 30°C) | Half-life (antibody 2D12.5 [2]; 37°C) | koff (antibody 2D12.5 [2]; 37°C) | Calc kon (antibody 2D12.5 [2]; 37°C)
cobalt(II) S-2-(4-aminobenzyl)-1, 4, 7, 10-tetraazacyclododecanetetraacetate [ABD(Co)] | 8.2(±0.9) ×10^5 M^−1 | 1200 nM | −8.2(±0.1) kcal/mol | −12.2(±0.4) kcal/mol | −13.2(±1.3) cal/mol-K | 7.1(±0.4) ×10^5 M^−1 | 1400 nM | −8.3(±0.1) kcal/mol | −12.4(±4.8) kcal/mol | −13.3(±4.8) cal/mol-K |  |  |  |  |  | 
yttrium S-2-(4-aminobenzyl)-1, 4, 7, 10-tetraazacyclododecanetetraacetate [ABD(Y)] | 3.3(±2.1) ×10^8 M^−1 | 3.1 nM | −11.7(±0.4) kcal/mol | −18.2(±0.5) kcal/mol | −21.5(±2.9) cal/mol-K | 5.2(±0.9) ×10^8 M^−1 | 2 nM | −12.4(±0.2) kcal/mol | −20.1(±1.2) kcal/mol | −24.9(±4.1) cal/mol-K | 2.68 ± 0.217 min | 4.0(±0.3) x10^−3 s−1 | 1.3e+06 M⁻¹ s⁻¹ | 1.62 ± 0.15 min | 7.0(±0.7) ×10^−3 s−1 | 3.5e+06 M⁻¹ s⁻¹
